Assay results from publication PMC3306279, “Evaluation of an Antimicrobial L-Amino Acid Oxidase and Peptide Derivatives from Bothropoides mattogrosensis Pitviper Venom” (PLoS ONE, 2012).
Ends that are not written are not given here.

What was measured:
Assay type in all cases: cell-based
[1] = test system: RAW 264.7 murine macrophage-like cells; experiment: Cell cytotoxicity, MTT assay; conditions: for Cytotoxicity, MTT assay: RAW264.7 cells, sample 512 µg.mL^−1, 24 h, mean ± S.D., three independent experiments; for cell viability: RAW264.7, even at higher concentrations
Description: Sterile filtered MTT (3-(4,5-dimethylthiazolyl)-2,5-diphenyl-tetrazoliumbromide; Sigma-Aldrich, USA) solution (5 mg.mL^−1 in PBS) was dark stored at −20°C. RAW 264.7 murine macrophage-like cells, 1×10^5 cells/well was seeded in 96 well plates (TPP, Switzerland), in supplemented DMEM medium (4 mM glutamine, 10% FCS and 100 units.ml^−1 penicillin/streptomycin) containing multiple treatments. Treatments consisted of fractions F-44, F-51, F-68, BmLAO (0–512 µg.mL^−1) and fragments BmLAO-f1, BmLAO-f2 and BmLAO-f3 at different concentrations (0–500 µM). After overnight incubation, 60% of medium was then removed, and 10 µl of the MTT solution was added to each well; the plates were then incubated for 4 h in the presence of 5% CO2 at 37°C. The blue formazan product generated was dissolved by the addition of 100 µl of 100% DMSO (Mallinckrodt Chemical) per well. The plates were then gently swirled for 5 min at room temperature in order to dissolve the precipitate. The absorbance was monitored at 575 nm in a Biotek Powerwave HT microplate spectrophotometer (Bio-Tek Instruments, USA).

[2] = test system: human erythrocytes; experiment: Hemolysis assay; conditions: for haemolysis: even at higher concentrations; for Cytotoxicity, Hemolysis assay: sample 512 µg.mL^−1, 24 h by the footnote (method: 1 h, 37°C), relative to 0.1% triton X-100, OD 540 nm, mean ± S.D., three independent experiments
Description: Human heparine-blood was obtained from the Universidade Católica de Brasilia cell collection. Collection was obtained with written informed consent. Heparine blood cells were centrifuged at 800 g for 10 min. The erythrocytes were washed three times and re-suspended in 0.1% PBS, pH 7.4. […] The positive control was 0.1% triton X-100 (Sigma-Aldrich, USA). The samples were then centrifuged at 800 g for 10 min. The optical density at 540 nm of the supernatant was measured. The relative optical density compared to that of the suspension treated with 0.1% triton X-100 defined hemolysis percent.

[3] = test system: Pseudomonas aeruginosa (ATCC15442); experiment: MIC determination, broth dilution; conditions: fragments, first figure of the cell (µM/µg.mL^−1); Mueller-Hinton broth, 37°C, 12 h; 100% growth inhibition
Description: (§1) The minimal inhibitory concentration (MIC) was determined using a standardized dilution method according to NCSLA guidelines. Overnight colonies of Bacillus subtilis (ATCC 6633), Enterococcus faecalis (ATCC 12953), Staphylococcus aureus (ATCC29213), Streptococcus pyogenes (ATCC19615), Escherichia coli (ATCC8739), Klebsiella pneumonia (ATCC13885), Proteus mirabilis (ATCC25933), Pseudomonas aeruginosa ATCC 15442 and Salmonella typhimurium (ATCC14028) were suspended to a turbidity of 0.5 units and further diluted in Mueller-Hinton broth (MH) (Himedia - India). […] Ten microliters of each concentration was added to each corresponding well of a 96-well plate (TPP, Switzerland) and 1×10^5 bacteria in the volume of 90 µL. The plate was incubated at 37°C for 12 h.

[4] = test system: Enterococcus faecalis (ATCC 12953); experiment: MIC determination, broth dilution; conditions: fragments, first figure of the cell (µM/µg.mL^−1); Mueller-Hinton broth, 37°C, 12 h; 100% growth inhibition
Description: as §1

[5] = test system: Proteus mirabilis (ATCC25933); experiment: MIC determination, broth dilution; conditions: fragments, first figure of the cell (µM/µg.mL^−1); Mueller-Hinton broth, 37°C, 12 h; 100% growth inhibition
Description: as §1

[6] = test system: Bacillus subtilis (ATCC 6633); experiment: MIC determination, broth dilution; conditions: fragments, first figure of the cell (µM/µg.mL^−1); Mueller-Hinton broth, 37°C, 12 h; 100% growth inhibition
Description: as §1

[7] = test system: Salmonella typhimurium (ATCC14028); experiment: MIC determination, broth dilution; conditions: fragments, first figure of the cell (µM/µg.mL^−1); Mueller-Hinton broth, 37°C, 12 h; 100% growth inhibition
Description: as §1

[8] = test system: Staphylococcus aureus (ATCC29213); experiment: MIC determination, broth dilution; conditions: fragments, first figure of the cell (µM/µg.mL^−1); Mueller-Hinton broth, 37°C, 12 h; 100% growth inhibition
Description: as §1

[9] = test system: Streptococcus pyogenes (ATCC19615); experiment: MIC determination, broth dilution; conditions: fragments, first figure of the cell (µM/µg.mL^−1); Mueller-Hinton broth, 37°C, 12 h; 100% growth inhibition
Description: as §1

[10] = test system: Klebsiella pneumoniae (ATCC13885); experiment: MIC determination, broth dilution; conditions: fragments, first figure of the cell (µM/µg.mL^−1); Mueller-Hinton broth, 37°C, 12 h; 100% growth inhibition
Description: as §1

[11] = test system: Escherichia coli (ATCC8739); experiment: MIC determination, broth dilution; conditions: fragments, first figure of the cell (µM/µg.mL^−1); Mueller-Hinton broth, 37°C, 12 h; 100% growth inhibition
Description: as §1

| Substance | Cytotoxicity, MTT assay [1] | haemolysis [2] | Cytotoxicity, Hemolysis assay [2] | MIC [3] [µM] | MIC [4] [µM] | MIC [5] [µM] | MIC [6] [µM] | MIC [7] [µM] | MIC [8] [µM] | MIC [9] [µM] | MIC [10] [µM] | MIC [11] [µM] | cell viability [1] |
| --- | --- | --- | --- | --- | --- | --- | --- | --- | --- | --- | --- | --- | --- |
| IKFEPPLPPKKAH-NH2 [BmLAO-f1] | 21.0±3.5 % of control | less than 25% | 13.75±3.6 % of control | 22 | 43 | 43 | 43 | 43 | 43 | 43 | 22 | 22 |  |
| IYYPPNHNFP-NH2 [BmLAO-f3] | 11.2±2.1 % of control | less than 25% | 9.87±3.1 % of control | 220 | 110 | 110 | 220 | 220 | 220 | 110 | 110 | 220 | over 78% |
| KKFWEDDG-NH2 [BmLAO-f2] | 13.6±4.5 % of control | less than 25% | 11.32±2.9 % of control | 250 | 125 | 125 | 250 |  | 250 | 125 | 125 | 250 | over 78% |
